Assay results from article PMC5381078, “Carboxylate derivatives of tributyltin (IV) complexes as anticancer and antileishmanial agents” (DARU Journal of Pharmaceutical Sciences, 2017).

Assays:
[1] = test system: promastigotes of Leishmania tropica kwh 23; assay: Antileishmanial activity (MTT assay); format: cell-based; conditions: 72 h; for Antileishmanial % growth inhibition (mortality, lethality): 20 μg/mL; for Antileishmanial LC50: MTT
Experimental: Antileishmanial activity against the promastigotes of Leishmania tropica kwh 23 was evaluated by a quantitative colorimetric assay using 3-(4,5-dimethylthiazol-2-yl)-2, 5-diphenyl tetrazolium bromide (MTT) with minor modifications. […] […] Negative control wells contained 1% DMSO in PBS. All samples were run in triplicate. Afterwards, plates were incubated for 4 h at 24 °C with 20 μL of MTT (4 mg/mL in distilled water) to determine the cell viability. Supernatant from each well was carefully removed leaving behind formazan crystals. Colored formazan crystals were dissolved in 100 μL of DMSO by setting those aside for 1 h to ensure complete dissolution. Cell viability was estimated by measuring absorbance at 540 nm using microplate reader and percentage growth inhibition was calculated.

[2] = test system: Leishmania tropica kwh 23 promastigotes; assay: ROS mediated antileishmanial activity (NaN3 / mannitol scavengers); format: cell-based; conditions: for Reduction of antileishmanial activity in the presence of NaN3: NaN3 0.1 mM; for Reduction of antileishmanial activity in the presence of mannitol: mannitol 1 mM
Experimental: Leishmania tropica kwh 23 promastigotes were treated in three groups. First group was exposed to samples along with 0.1 mM sodium azide (NaN3), second group to samples with 1 mM mannitol and third group comprised of all controls. In third group, promastigotes were treated in different wells with samples only (sample control), 1% DMSO in PBS only (negative control-I), amphotericin B only (positive control), 0.1 mM NaN3 only (negative control-II) and 1 mM mannitol only (negative control-III). Plates were incubated followed by MTT assay described above.

THP-1 cell line = assay: Cytotoxicity against THP-1 cell line (MTT assay); format: cell-based, human; conditions: 20 μg/mL, 72 h
Experimental: Cytotoxicity of tributyltin (IV) compounds against THP-1 cell line was determined by 3-(4,5-dimethylthiazol-2-yl)-2,5-diphenyl tetrazolium bromide (MTT) assay. THP-1 cells were cultured in complete growth medium comprising RPMI-1640 (pH 7.4) supplemented with 2.2 g/L NaHCO3 and 10% v/v heat inactivated fetal bovine serum (HIFBS). An aliquot of 20 μL of samples in 1% DMSO in PBS and 180 μL of THP-1 cells were mixed in 96-well plate. Cells were added at an assay density of 1 × 10^4 cells/mL whereas sample/standard was added to achieve the final concentration of 20 μg/mL. The plate was incubated at 37 °C for 72 h in humidified 5% carbon dioxide incubator (Panasonic, Japan MCO-18 AC-PE). Vincristine and 1% DMSO in PBS were used as positive and negative controls respectively. After incubation, 20 μL of pre-filter sterilized MTT solution (4 mg/mL in distilled water) was added in plates and incubated for 4 h at 37 °C in CO2 incubator. Later, colored formazan crystals were separated by removing supernatant and dissolved in 100 μL of DMSO. Reaction was allowed to stand for 1 h to ensure complete dissolution and absorbance was measured at 540 nm using microplate reader (Biotech USA, Elx 800).

isolated lymphocytes = assay: Cytotoxicity against isolated lymphocytes (MTT assay); format: cell-based, human; conditions: 24 h
Experimental: Lymphocytes were isolated using previously described protocol with some modifications. Informed consent was obtained from volunteers and procedure was conducted according to international ethical guidelines after gaining approval from the ethical committee of the Quaid-i-Azam University. A volume of 3 mL of blood was obtained from a healthy donor by venipuncture and diluted (1:1) with PBS. It was layered over 2 mL Histopaque-1077 and centrifuged at 800 × g for 20 min. The buffy coat was aspirated into 5 mL of PBS and centrifuged at […] for 4 min to pellet the lymphocytes. The pellet was suspended in 1 mL of RPMI-1640 and cell density was adjusted to get 1 × 10^5 cells/mL. For cytotoxicity determination, 20 μL of samples (20 μg/mL) or vincristine or 1% DMSO in PBS and 180 μL of lymphocyte suspension were incubated in 96-well plate at 37 °C for 24 h in humidified 5% carbon dioxide incubator (Panasonic, Japan MCO-18 AC-PE). Phytohaemagglutinin (PHA) was added in medium to stimulate lymphocyte growth. Afterwards, MTT assay was done as described above. IC50 values were determined using 3-fold dilutions of the samples.

[3] = test system: Leishmania tropica kwh 23 promastigotes; assay: Photosensitizing effect against leishmania; format: cell-based; conditions: 0.092 μg/mL; for Photosensitizing effect % growth inhibition, Sunlight with IR filter: 15 min; for Photosensitizing effect % growth inhibition, Sunlight: 15 min sunlight
Experimental: Photosensitizing effect of tributyltin (IV) compounds was determined in three parallel groups. Samples and controls were exposed for 15 min to sunlight (168 W/m^2 of sun intensity) or sunlight with IR filter or dark conditions. The relative intensity of sunlight was measured by a CCD spectrometer (Ocean Optics, model HR4000). Later, plates were incubated at 25 °C for 72 h and cell viability was determined by MTT assay as given above. In this assay, samples were tested at concentrations showing less than 55% inhibition in primary antileishmanial assay to exclude false positive.

Streptomyces 85E = assay: Protein kinase inhibition assay (Streptomyces disc assay); format: cell-based; conditions: for ZOI CZ (clear zone): (-) shows no ZOI; for ZOI BZ (bald zone): BZ indicative of PK inhibition; for MIC for PK inhibition: minimum inhibitory concentration
Experimental: Protein kinase inhibitory activity of the tributyltin (IV) compounds was measured against Streptomyces 85E strain using previously described protocol. Culture of Streptomyces 85E was refreshed in tryptic soy broth and 100 μL of this was swabbed on sterile ISP4 medium under aseptic conditions. […] Diameter (mm) of zone of inhibition (ZOI) around all samples and controls was measured as clear zone (CZ) and bald zone (BZ). […] BZ is indicative of PK inhibition.

HepG2 cell line = assay: Cytotoxicity against HepG2 cell line (SRB assay); format: cell-based, human; conditions: 72 h
Experimental: Cytotoxicity was further evaluated against HepG2 cell line by sulforhodamine B (SRB) colorimetric assay. Dulbecco's Modified Eagle Medium (DMEM) supplemented with 10% FBS, 100 μg/mL streptomycin sulfate, 100 IU/mL penicillin G sodium and 0.25 μg/mL amphotericin B was used to culture HepG2 cells in CO2 (5%) incubator (Panasonic, Japan MCO-18 AC-PE) at 37 °C. An aliquot of 20 μL (1% DMSO in PBS) of samples was added to 180 μL of cell culture at an assay density of 1x10^5 cells/mL in 96-well plate. The plate was incubated at 37 °C for 72 h in CO2 incubator. Final concentration of compounds/standard was 20 μg/mL. Doxorubicin and 1% v/v DMSO in PBS ere used as positive and negative controls respectively. An equivalent number of cells in twelve wells of 96-well plate were incubated for 1 h at 37 °C and labeled as day zero control. Later, cells were fixed by adding 50 μL of cold 20% w/v TCA for 1 h at 4 °C. These were washed with tap water, air dried and stained with 50 μL of 0.057% w/v SRB in 1% v/v acetic acid for 30 min at room temperature. Cells were again washed with 1% v/v acetic acid, dried overnight and 200 μL of 10 mM Tris base (pH 10) was used to solubilize the bound dye for 1 h. Absorbance was measured at 515 nm using a microplate reader. Percentage of growth inhibition was calculated as: % inhibition = 100 – [(As – Ao) / (An – Ao) × 100], where, Ao, As and An are absorbance of day zero control, samples and negative control respectively. IC50 values were determined using 3-fold dilutions of the samples.

[4] = test system: axenic log-phase promastigotes; parameters: method as in PMID 19546361; conditions: cited from earlier work
[5] = test system: cellular metacyclic promastigotes; parameters: method as in PMID 19546361; conditions: cited from earlier work

C[C@@H]1[C@H](O)[C@@H](C)/C=C/C=C/C=C/C=C/C=C/C=C/C=C/[C@H](O[C@@H]2O[C@H](C)[C@@H](O)[C@H](N)[C@@H]2O)C[C@@H]2O[C@](O)(C[C@@H](O)C[C@@H](O)[C@H](O)CC[C@@H](O)C[C@@H](O)CC(=O)O[C@H]1C)C[C@H](O)[C@H]2C(=O)O [Amphotericin B, reference compound]
mortality at 20 µg/mL ([1]; Leishmania tropica, read-out: Antileishmanial % growth inhibition (mortality, lethality)): 100%
Reduction of antileishmanial activity in the presence of NaN3 [2]: 16%
Reduction of antileishmanial activity in the presence of mannitol [2]: 10%

CCC[CH2][Sn]([CH2]CCC)([CH2]CCC)[O]C(=O)/C=C\C(=O)NC1CCCCC1 [Ch-442, tributylstannyl (Z)-4-(cyclohexylamino)-4-oxobut-2-enoate]
THP-1 % growth inhibition (THP-1 cell line): 44.6 ± 1.18%
Isolated lymphocytes IC50 (isolated lymphocytes): 14.9 ± 0.25 µg/mL
Antileishmanial % growth inhibition (mortality, lethality) [1]: 95.8 ± 2.16 %
Antileishmanial LC50 [1]: 0.088 ± 0.009 µg/mL
Reduction of antileishmanial activity in the presence of NaN3 [2]: 22%
Reduction of antileishmanial activity in the presence of mannitol [2]: 38.2%
Photosensitizing effect % growth inhibition, Control [3]: 46.1 ± 0.56%
Photosensitizing effect % growth inhibition, Dark [3]: 44.18 ± 1.16%
Photosensitizing effect % growth inhibition, Sunlight with IR filter [3]: 49.25 ± 0.63%
Photosensitizing effect % growth inhibition, Sunlight [3]: 40.5 ± 0.12%
ZOI CZ (clear zone) (Streptomyces 85E; 6.25 μg/disc): 10 ± 0.74 mm
ZOI BZ (bald zone) (Streptomyces 85E; 6.25 μg/disc): 29 ± 0.78 mm
ZOI CZ (clear zone) (Streptomyces 85E; 50 μg/disc): 40 ± 1.17 mm
MIC for PK inhibition (Streptomyces 85E): 0.391 ± 0.006 μg/disc

CCC[CH2][Sn]([CH2]CCC)([CH2]CCC)[O]C(=O)/C=C\C(=O)Nc1ccccc1 [Ch-458, tributylstannyl (Z)-4-oxo-4-(phenylamino)but-2-enoate]
HepG2 % growth inhibition (HepG2 cell line; 20 μg/mL): 98.7 ± 3.56 %
HepG2 IC50 (HepG2 cell line; 3-fold dilutions): 1.58 ± 0.07 µg/mL
THP-1 % growth inhibition (THP-1 cell line): 21.2 ± 1.57%
Isolated lymphocytes % growth inhibition (isolated lymphocytes; 20 μg/mL): 14.8 ± 0.13ǂ %
Antileishmanial % growth inhibition (mortality, lethality) [1]: 97.8 ± 1.23 %
Antileishmanial LC50 [1]: 0.256 ± 0.064 µg/mL
Photosensitizing effect % growth inhibition, Control [3]: 35.2 ± 1.78%
Photosensitizing effect % growth inhibition, Dark [3]: 36.7 ± 0.74%
Photosensitizing effect % growth inhibition, Sunlight with IR filter [3]: 30.25 ± 0.17%
Photosensitizing effect % growth inhibition, Sunlight [3]: 42.7 ± 1.35%
ZOI CZ (clear zone) (Streptomyces 85E; 6.25 μg/disc): 12 ± 1.25 mm
ZOI BZ (bald zone) (Streptomyces 85E; 6.25 μg/disc): 31 ± 1.37 mm
ZOI CZ (clear zone) (Streptomyces 85E; 50 μg/disc): 30 ± 1.2 mm
MIC for PK inhibition (Streptomyces 85E): 0.195 ± 0.001 μg/disc

O.O.O.O.O.O.O.O.O.O=C([O-])[C@@H]1[O][Sb](=[O])([O][Sb]2(=[O])[O][C@H]([C@H](O)CO)[C@H](O)[C@H](C(=O)[O-])[O]2)[O][C@H]([C@H](O)CO)[C@@H]1O.[Na+].[Na+].[Na+] (stereo partly drawn) [sodium stibogluconate]
IC50 [4]: 64 µg/mL
IC50 [5]: 22 µg/mL
